Measurements from paper PMC7688903 (Frontiers in Microbiology, 2020).
“Also recorded” adds a separate entry of the source. Where no end group is shown, it is not given here. [ ]: non-standard residue; d: D form. 2Thi = N[C@@H](Cc1cccs1)C(=O)O; Aib = CC(C)(N)C(=O)O

Key:
[1] = plasma from healthy volunteers; settings: human, 37°C, up to 36 h
Trypsin = assay: trypsin in 0.1 M NH4HCO3 buffer (pH 8.2); settings: 37°C, up to 24 h
BALB/c mice = assay: In vivo acute toxicity, single injection; design: species or system mouse; settings: three mice, monitored 24 h
Description: Six-week-old mice (approximate weight: 18–20 g, SFP grade) were bred and maintained under specific pathogen-free conditions on a 12 h light/dark cycle. The peptides were dissolved in PBS (pH 7.4) and three mice were used for each dose. As a control, colistin was administered in a similar manner. The mice were monitored for 24 h and mice were weighed at the end of the experiment. The procedure was evaluated and approved by the Ethical Committee of Experimental Animals of the Chia Tai Tianqing Pharmaceutical Group in August 2019.
As summarized in Figure 6, a toxicity score was assigned as follows: no abnormalities = without signs; mild depression, poor motility, purple-black tail, and recovery in 1 h = mild signs; serious depression and poor motility even under stimulation = manifest signs; sudden death within 10 min = died of toxic effects.

[2] = system: carbapenem-resistant A. baumannii (CRAB) SIPI-025; format: cell-based, Acinetobacter baumannii; settings: CRAB SIPI-025; MH broth, 37°C, 20 h; visual; independent triplicate assays
Description: (§1) The antimicrobial activities of the peptides were tested against E. coli ATCC 25922, P. aeruginosa ATCC 27853, carbapenem-resistant P. aeruginosa SIPI-012, A. baumannii ATCC 19606, carbapenem-resistant A. baumannii SIPI-025, S. aureus ATCC 25923, and C. albicans ATCC 10231. The minimum inhibitory concentration (MIC) values were determined using the microdilution method according to Clinical and Laboratory Standards Institute guidelines ([CLSI, 2008], [2012]). The peptides were dissolved in 10 mM PB to a concentration of 1280 μg/mL as stock solutions.
(§2) For inoculum preparation of bacteria, morphologically similar colonies selected from fresh MH agar plates were transferred using a loop into approximately 10 mL of MH broth in a capped test tube and vortexed. The suspension was adjusted with MH broth to achieve a turbidity equivalent to a 0.5 McFarland standard (BaSO4 solution prepared spectrophotometrically). A working suspension was prepared by making a 1:15 dilution followed by a 1:20 dilution of the stock suspension with MH broth medium to obtain approximately 5 × 10^5 CFU/mL. For inoculum preparation of yeast, five fresh colonies of approximately 1 mm diameter were picked from 24-hour-old cultures of C. albicans and suspended in 5 mL of sterile 0.85% saline. The resulting suspension was vortexed and the cell density was adjusted by adding sufficient sterile saline to achieve a turbidity equivalent to a 0.5 McFarland standard. A working suspension was prepared by making a 1:100 dilution followed by a 1:20 dilution of the stock suspension with RPMI 1640 broth medium to obtain 0.5 × 10^3 to 2.5 × 10^3 CFU/mL. Intermediate twofold dilutions of the peptides were prepared in MH broth and RPMI 1640 medium, and 90 μL aliquots were added to each well in addition to 10 μL of the inoculum prepared above.
(§3) Each plate included a growth control well and a sterility (uninoculated) control well. Colistin, vancomycin hydrochloride, and amphotericin B were used as positive controls for gram-negative bacteria, gram-positive bacteria, and fungi, respectively. The bacterial and fungal plates were incubated at 37°C for 20 h and 35°C for 48 h, respectively, both under ambient atmosphere. The inhibition of microbial growth was assessed visually. The MICs were determined from independent triplicate assays.

A. baumannii ATCC 19606 = format: cell-based, Acinetobacter baumannii; settings: A. baumannii ATCC 19606; MH broth, 37°C, 20 h; visual; independent triplicate assays
Description: as §1, §2, §3

P. aeruginosa ATCC 27853 = format: cell-based, Pseudomonas aeruginosa; settings: P. aeruginosa ATCC 27853; MH broth, 37°C, 20 h; visual; independent triplicate assays
Description: as §1, §2, §3

[3] = system: carbapenem-resistant P. aeruginosa (CRPA) SIPI-012; format: cell-based, Pseudomonas aeruginosa; settings: CRPA SIPI-012; MH broth, 37°C, 20 h; visual; independent triplicate assays
Description: as §1, §2, §3

P. aeruginosa ATCC 9027 = assay: In vivo antibacterial activity, lethal intraperitoneal infection; settings: BALB/c mice, lethal i.p. dose of P. aeruginosa ATCC 9027, 10 mg/kg i.p. at 1 and 8 h post-infection, n = 10
Description: The in vivo antibacterial activities of the peptides were evaluated in BALB/c mice using P. aeruginosa ATCC 9027 as a test strain. A total of 20 mice (6 weeks old, approximate weight: 18–20 g, SFP grade) were first used to measure the minimal lethal doses (MLD) with 5 mice for each inoculum. Cell numbers of selected strains were determined from the colony numbers from the plate count agar and four inocula (1 × 10^6, 5 × 10^6, 1 × 10^7, and 5 × 10^7 CFU/mouse) were administered via intraperitoneal injection. The minimal lethal dose was determined by measuring the mortality rate after 72 h. BALB/c mice were then injected intraperitoneally with a lethal dose of P. aeruginosa ATCC 9027. […] Colistin (10 mg/kg) was used as a positive control. The survival of the animals was monitored over 7 d.

E. coli ATCC 25922 = format: cell-based, Escherichia coli; settings: E. coli ATCC 25922; MH broth, 37°C, 20 h; visual; independent triplicate assays
Description: as §1, §2, §3

Substance	fragment found [1]	fragment found (Trypsin)	signs of toxicity after intravenous injection (BALB/c mice; single i.v. dose 10 mg/kg)	signs of toxicity after intravenous injection (BALB/c mice; single i.v. dose 20 mg/kg)	MIC [2] [µg/mL]	MIC (A. baumannii ATCC 19606) [µg/mL]	MIC (P. aeruginosa ATCC 27853) [µg/mL]	MIC [3] [µg/mL]	survival rate (P. aeruginosa ATCC 9027; after 3 d) [%]	survival rate (P. aeruginosa ATCC 9027; after 7 d) [%]	MIC (E. coli ATCC 25922) [µg/mL]
[Aib]RLFKKLLKYLRK[2Thi]	(R) LFKKLLKYLRKThi 3–14, major, 12 h	(K) KLLK (Y) 6–9, major, 18 h; also recorded: (R) LFKK (L) 3–6, major, 18 h; also recorded: (K) LLK (Y) 7–9, major, 18 h; also recorded: (K) YLR (K) 10–12, major, 18 h; also recorded: (R) LFK (K) 3–5, major, 18 h									
colistin [reference compound]			two out of three mice dying immediately	all three mice dying	0.25	0.25	0.5	1	100	100	0.25
krLFkkLLKYLRkF	(K) YLRkF 10–14, major, 12 h; also recorded: krLFkkLL (K) 1–8, major, 12 h	(K) YLR (k) 10–12, major, 18 h; also recorded: krLFkkLLK (Y) 1–9, major, 18 h; also recorded: (K) YLRkF 10–14, major, 18 h									
